This is an account of results in US7879792B2, “Synthetic peptide inhibitors of thrombin and thrombin activation of protease activated receptors 1 and 4” (The Regents of the University of Michigan, priority 2005, dated 2011).

Where a SMILES comes first, the peptide text is derived from it.

The nature of data set [1]: rat intestinal in situ perfusion permeability. The format is in vivo. The method, then:
To determine the intestinal permeability of the various peptide analogs, male albino Sprague-Dawley rats, 9-10 weeks old and weighing 250-350 g were fasted for 18 hours with free access to water. The rats were anesthetized with an intramuscular injection of ketamine/xylazine/butorphanol (87 mg/kg, 6 mg/kg, and 0.2 mg/kg body weight, respectively). The abdomen was opened by a 4-5 cm midline incision and a 10 cm jejunal segment was cannulated on two ends and connected to a syringe pump that pumps the perfusing solution through the cannulated intestine at a constant rate and at a temperature of 37° C. The isolated segment was rinsed with 10 mM MES (pH 6.5) at a flow-rate of 0.5 ml/min in order to clean out any residual debris. Jejunal perfusion was subsequently performed with the same buffer containing 135 mM NaCl, 5 mM KCl and 0.01% PEG 4000 at a flow rate of 0.2 ml/min containing test compound, internal permeability reference standards (e.g., metoprolol) and ^14C-PEG 4000 as a non-absorbable marker for measuring water flux. After steady-state is reached within the perfused intestinal segment, typically 30 minutes after start of perfusion, samples were taken at 10 minute intervals for 1 hour. ^14C (PEG-4000) levels are assayed by scintillation counting and test compounds and internal permeability standard analysis by LC/MS/MS. Samples are frozen and stored at −80° C. until analysis.
The effective permeability (Peff) determined from the in situ perfusion is calculated from equation 1
[formula] where Q is the perfusion buffer flow rate, C′out is the outlet concentration of the compound that has been adjusted for water transport (equation 2) after passing through the intestinal segment, C′in is the inlet or starting concentration of the compound, R is the radius of the intestinal segment (set to 0.2 cm) and L is the length of the intestinal segment. To correct for water transport, a non-absorbed radioactive tracer, ^14C PEG-4000, is included in the perfusion buffer. The Cout/Cin ratio is corrected for water transport according to equation 2:
[formula] where Aout-A0 is equal to the radioactivity counts in the outlet sample minus background (dpm) and Ain-A0 is equal to the radioactivity counts in the inlet sample minus background (dpm).
In certain instances, in addition to perfusing the intestinal segment as described, plasma is drawn through a portal vein cannula to determine the amount of material entering the portal system during the perfusion. This additional experimental step can aid in determining the true intestinal permeability of unstable compounds. After steady state conditions are reached as described above, 0.5 ml aliquots of plasma are withdrawn from the portal vein at regular intervals throughout the experimental time frame. The plasma samples are deproteinated with acetonitrile and the sample is subjected to SPE and LC/MS analysis as described above. From the plasma concentration of compound, the mesenteric permeability can be determined by substitution into equation 3: Flux=A*Pe-mes*Ci 3) where Flux is equal to the portal blood flow (estimated at 1 ml/min in the rat)×the steady state mesenteric blood concentration of the peptide analogs, A is the absorptive area of the intestine (estimated at 12.56 cm^2 in the rat intestine), Pe-mes is the mesenteric Permeability (cm/sec), and Ci is the starting concentration of drug in the perfusate (ug/ml).

The nature of data set [2]: stability testing in MES buffer (pH 6.5). It is filed as physicochemical. As to conditions: 37° C., read-out: t1/2 (min) MES Buffer (pH 6.5). The method, then: Stability testing of the various compounds was performed in buffer, intestinal perfusate, and an intestinal homogenate preparation to assess the potential oral availability of these compounds. Initial studies prepared the tissue for stability studies. The buffer used in stability testing is 10 mM MES (pH 6.5) containing 135 mM NaCl, and 5 mM KCl. To collect intestinal perfusate from rats, male Sprague Dawley rats, 8 to 10 weeks old, weighing 250 to 350 g were fasted 15 to 18 hours with water given ad libitum. Anesthesia was administered by intramuscular injection of pentobarbital/ketamine (40 mg/kg and 80 mg/kg, respectively). The rats were placed on a warming pad under a surgical lamp to maintain body temperature and jejunal intestinal segments were exposed through a midline, abdominal incision. Approximately 20 cm segment of the jejunum (2 to 4 cm distal to the ligament of Treitz) was cannulated and the intestinal segments were perfused with 10 mM MES (pH 6.5) containing 135 mM NaCl, and 5 mM KCl at a flow-rate of 0.5 ml/min at 37° C. using a constant infusion pump (Harvard Apparatus, South Natick, Mass.). The collected perfusate was stored at −80° C. until use for ex vivo stability studies. After collection, the perfused intestinal segments were flushed with ice-cold 0.15 M KCl solution and the animal was euthanized and the jejunal intestinal segment detached. The inner intestinal tissue layers are scraped out and homogenized in MES buffer (pH 6.5) in a ratio of 1 part of intestinal tissue to 5 parts buffer. Total protein content of the perfusate and the homogenate were determined using a Biorad protein assay kit. The intestinal homogenate samples were used immediately or rapidly frozen at −80° C. until stability analysis.
The actual stability testing protocol is as follows: A 0.1 ml aliquot of the synthetic peptide solution (1 mg/ml) was added to 0.9 ml of MES buffer, pH 6.5, intestinal perfusate, or intestinal homogenate at 37° C. Samples were mixed by vortexing and 100 microliter aliquots were removed over a 60 to 90 minute period for analysis of breakdown products. […]

Consider `N=C(N)NCCC[C@@H](N)C(=O)N1[C@H](C(=O)N2CCC[C@H]2C(=O)NCC(=O)N[C@@H](Cc2ccccc2)C(N)=O)C[C@@H]2CCCC[C@@H]21` [rOicPGF, D-Arg-Oic-Pro-Gly-Phe, reference compound] (HELM PEPTIDE1{[dR].[O=C([C@@H]1C[C@@H]2CCCC[C@@H]2N1[*:1])[*:2]].P.G.F.[am]}$$$$V2.0), for which the “Permeability (in situ) (cm/sec)” value in data set [1] (rat jejunal in situ perfusion) is recorded as “Degraded”. For the same compound, the Papp in data set [1] (rat, from portal vein plasma during perfusion, read-out: Permeability (mesenteric)) was 0.451 ×10⁻⁶ cm/s. Also, the half-life at 0.1 mg/ml in data set [2] was 179 min.
